Results reported in article PMC9403976, “Elucidating the path to Plasmodium prolyl-tRNA synthetase inhibitors that overcome halofuginone resistance” (Nature Communications, 2022).
“And” between values parts separate entries of the source, which are not always exact repeats. Equal values may be shown once. Read-outs that look alike come from different tables or passages of the source.

Tests used:
PfcProRS = target: T1, PfcProRS (Plasmodium falciparum, UniProt Q8I5R7); type: binding; conditions: single replicates
T1 construct: made in house; host or cells: E. coli SoluBL-21
T1 sequence (Q8I5R7 249-746): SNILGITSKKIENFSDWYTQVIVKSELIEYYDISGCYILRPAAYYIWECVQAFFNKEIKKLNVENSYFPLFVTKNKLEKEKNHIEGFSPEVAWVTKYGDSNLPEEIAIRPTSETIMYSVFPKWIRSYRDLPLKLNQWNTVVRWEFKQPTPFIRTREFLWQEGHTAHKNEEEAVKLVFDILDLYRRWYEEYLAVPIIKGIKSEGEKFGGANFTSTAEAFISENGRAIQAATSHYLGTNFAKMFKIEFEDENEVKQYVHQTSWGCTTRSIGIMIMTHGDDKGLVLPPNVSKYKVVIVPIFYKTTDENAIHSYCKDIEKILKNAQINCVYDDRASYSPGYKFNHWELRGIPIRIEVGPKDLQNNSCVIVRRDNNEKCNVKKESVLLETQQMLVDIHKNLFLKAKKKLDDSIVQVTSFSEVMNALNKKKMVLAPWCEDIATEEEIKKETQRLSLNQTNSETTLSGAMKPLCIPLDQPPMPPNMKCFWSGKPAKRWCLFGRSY

HsProRS = HsProRS (Homo sapiens, UniProt P07814); test: TR-FRET ligand displacement assay with tracer MAT379 (CoraFluor-1-Halo and anti-His6 antibody formats); type: binding; set-up: made in house; host or cells: E. coli SoluBL-21; conditions: for TR-FRET dose-response, normalized signal (SI Fig 11): individual replicates
Chain of HsProRS (P07814 996-1512): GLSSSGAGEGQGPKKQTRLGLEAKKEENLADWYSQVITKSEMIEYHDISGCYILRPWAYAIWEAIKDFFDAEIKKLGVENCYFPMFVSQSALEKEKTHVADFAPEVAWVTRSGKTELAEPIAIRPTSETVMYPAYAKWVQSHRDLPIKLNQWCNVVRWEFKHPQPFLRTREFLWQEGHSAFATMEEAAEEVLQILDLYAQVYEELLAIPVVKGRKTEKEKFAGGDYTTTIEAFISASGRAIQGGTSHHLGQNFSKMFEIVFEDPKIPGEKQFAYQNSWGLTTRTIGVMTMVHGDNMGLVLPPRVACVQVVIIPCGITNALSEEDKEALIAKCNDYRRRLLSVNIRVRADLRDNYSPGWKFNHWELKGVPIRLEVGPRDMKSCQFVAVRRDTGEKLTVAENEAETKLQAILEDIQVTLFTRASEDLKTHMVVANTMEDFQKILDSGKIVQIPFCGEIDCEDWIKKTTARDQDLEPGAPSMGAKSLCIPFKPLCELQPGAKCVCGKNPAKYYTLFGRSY

P. falciparum Dd2-2D4 = test: P. falciparum asexual blood stage (ABS) growth assay, SYBR Green, 72 h, wild-type parasites; type: cell-based, Plasmodium falciparum; conditions: Plasmodium falciparum, DD2; SI Fig 16b; values on -log scale; read-out: ABS - Dd2-2D4 (converted)

`CC(C)(C)OC(=O)N1CCN(C(=O)Nc2nccnc2C(=O)NC2Cc3ccccc3C2)CC1` [compound 13] was tested, and the “dose-response signal (normalized), SI Fig 8” value (PfcProRS; Log[inhibitor] (M) -5.000) was 6.57E-01 and 6.36E-01 and 6.64E-01, the “dose-response signal (normalized), SI Fig 8” value (PfcProRS; Log[inhibitor] (M) -5.301) was 8.73E-01 and 7.48E-01 and 7.96E-01 and the “dose-response signal (normalized), SI Fig 8” value (PfcProRS; Log[inhibitor] (M) -5.601) was 9.97E-01 and 9.02E-01 and 8.50E-01. The “dose-response signal (normalized), SI Fig 8” value (PfcProRS; Log[inhibitor] (M) -5.904) was 9.78E-01 and 1.07E+00 and 1.00E+00, the “dose-response signal (normalized), SI Fig 8” value (PfcProRS; Log[inhibitor] (M) -6.208) was 1.06E+00 (2×) and 9.45E-01 and the “dose-response signal (normalized), SI Fig 8” value (PfcProRS; Log[inhibitor] (M) -6.509) was 1.17E+00 and 1.01E+00 and 1.09E+00. The “dose-response signal (normalized), SI Fig 8” value (PfcProRS; Log[inhibitor] (M) -6.796) was 1.13E+00 and 1.01E+00 and 1.17E+00, the “dose-response signal (normalized), SI Fig 8” value (PfcProRS; Log[inhibitor] (M) -7.108) was 1.04E+00 and 9.91E-01 and 1.15E+00 and the “dose-response signal (normalized), SI Fig 8” value (PfcProRS; Log[inhibitor] (M) -7.409) was 1.05E+00 and 1.06E+00 and 1.03E+00. For the same compound, the “dose-response signal (normalized), SI Fig 8” value (PfcProRS; Log[inhibitor] (M) -7.710) was 1.04E+00 and 9.80E-01 and 9.98E-01, the “dose-response signal (normalized), SI Fig 8” value (PfcProRS; Log[inhibitor] (M) -8.000) was 1.08E+00 and 9.50E-01 and 1.05E+00 and the “dose-response signal (normalized), SI Fig 8” value (PfcProRS; Log[inhibitor] (M) -8.301) was 1.02E+00 and 1.08E+00 and 1.09E+00. The “dose-response signal (normalized), SI Fig 8” value (PfcProRS; Log[inhibitor] (M) -8.602) was 9.84E-01 and 9.74E-01 and 9.67E-01, the “dose-response signal (normalized), SI Fig 8” value (PfcProRS; Log[inhibitor] (M) -9.000) was 1.06E+00 and 9.60E-01 and 9.76E-01 and the “dose-response signal (normalized), SI Fig 8” value (PfcProRS; Log[inhibitor] (M) -9.301) was 1.07E+00 and 9.33E-01 and 9.62E-01. For the same compound, the IC50 (HsProRS) was > 10 µM, the “HsProRS % signal at 10 μM, + 100 μM proline” value (HsProRS; + 100 μM proline, 10 μM) was 52.2% and the “normalized TR-FRET ligand displacement signal, dose-response replicates (SI Fig 6)” value (HsProRS; Log[inhibitor] (M) -5.000) was 5.04E-01 and 5.72E-01 and 5.31E-01. The “TR-FRET dose-response, normalized signal (SI Fig 11)” value (HsProRS; Log[inhibitor] (M) -5.000) was 5.54E-01 and 6.12E-01 and 6.15E-01, the “normalized TR-FRET ligand displacement signal, dose-response replicates (SI Fig 6)” value (HsProRS; Log[inhibitor] (M) -5.301) was 6.63E-01 and 7.73E-01 and 7.12E-01 and the “TR-FRET dose-response, normalized signal (SI Fig 11)” value (HsProRS; Log[inhibitor] (M) -5.301) was 7.87E-01 and 7.25E-01 and 6.74E-01. The “normalized TR-FRET ligand displacement signal, dose-response replicates (SI Fig 6)” value (HsProRS; Log[inhibitor] (M) -5.601) was 9.43E-01 and 7.95E-01 and 9.57E-01, the “TR-FRET dose-response, normalized signal (SI Fig 11)” value (HsProRS; Log[inhibitor] (M) -5.601) was 8.12E-01 and 8.26E-01 and 8.38E-01 and the “normalized TR-FRET ligand displacement signal, dose-response replicates (SI Fig 6)” value (HsProRS; Log[inhibitor] (M) -5.904) was 9.95E-01 and 9.88E-01 and 9.03E-01. For the same compound, the “TR-FRET dose-response, normalized signal (SI Fig 11)” value (HsProRS; Log[inhibitor] (M) -5.904) was 8.50E-01 and 8.61E-01 and 8.43E-01, the “normalized TR-FRET ligand displacement signal, dose-response replicates (SI Fig 6)” value (HsProRS; Log[inhibitor] (M) -6.208) was 1.02E+00 and 9.02E-01 and 9.17E-01 and the “TR-FRET dose-response, normalized signal (SI Fig 11)” value (HsProRS; Log[inhibitor] (M) -6.208) was 9.15E-01 and 9.28E-01 and 8.71E-01. The “normalized TR-FRET ligand displacement signal, dose-response replicates (SI Fig 6)” value (HsProRS; Log[inhibitor] (M) -6.509) was 9.58E-01 and 9.37E-01 and 9.28E-01, the “TR-FRET dose-response, normalized signal (SI Fig 11)” value (HsProRS; Log[inhibitor] (M) -6.509) was 9.05E-01 and 9.50E-01 and 9.14E-01 and the “normalized TR-FRET ligand displacement signal, dose-response replicates (SI Fig 6)” value (HsProRS; Log[inhibitor] (M) -6.796) was 1.05E+00 (2×) and 9.53E-01. For the same compound, the “TR-FRET dose-response, normalized signal (SI Fig 11)” value (HsProRS; Log[inhibitor] (M) -6.796) was 9.07E-01 and 9.30E-01 and 8.71E-01, the “normalized TR-FRET ligand displacement signal, dose-response replicates (SI Fig 6)” value (HsProRS; Log[inhibitor] (M) -7.108) was 1.05E+00 and 1.10E+00 and 9.73E-01 and the “TR-FRET dose-response, normalized signal (SI Fig 11)” value (HsProRS; Log[inhibitor] (M) -7.108) was 9.13E-01 and 9.30E-01 and 9.12E-01. The “normalized TR-FRET ligand displacement signal, dose-response replicates (SI Fig 6)” value (HsProRS; Log[inhibitor] (M) -7.409) was 1.03E+00 and 1.01E+00 (2×), the “TR-FRET dose-response, normalized signal (SI Fig 11)” value (HsProRS; Log[inhibitor] (M) -7.409) was 9.32E-01 and 9.37E-01 and 8.25E-01 and the “normalized TR-FRET ligand displacement signal, dose-response replicates (SI Fig 6)” value (HsProRS; Log[inhibitor] (M) -7.710) was 9.23E-01 (2×) and 9.87E-01. For the same compound, the “TR-FRET dose-response, normalized signal (SI Fig 11)” value (HsProRS; Log[inhibitor] (M) -7.710) was 9.18E-01 and 8.75E-01 and 8.91E-01, the “normalized TR-FRET ligand displacement signal, dose-response replicates (SI Fig 6)” value (HsProRS; Log[inhibitor] (M) -8.000) was 9.04E-01 and 9.35E-01 and 9.98E-01 and the “TR-FRET dose-response, normalized signal (SI Fig 11)” value (HsProRS; Log[inhibitor] (M) -8.000) was 9.32E-01 and 9.16E-01 and 8.80E-01. For the same compound, the “normalized TR-FRET ligand displacement signal, dose-response replicates (SI Fig 6)” value (HsProRS; Log[inhibitor] (M) -8.301) was 9.80E-01 and 9.08E-01 and 1.02E+00, the “TR-FRET dose-response, normalized signal (SI Fig 11)” value (HsProRS; Log[inhibitor] (M) -8.301) was 8.80E-01 and 9.57E-01 and 9.53E-01 and the “normalized TR-FRET ligand displacement signal, dose-response replicates (SI Fig 6)” value (HsProRS; Log[inhibitor] (M) -8.602) was 9.80E-01 and 9.47E-01 and 9.05E-01. The “TR-FRET dose-response, normalized signal (SI Fig 11)” value (HsProRS; Log[inhibitor] (M) -8.602) was 9.10E-01 and 9.58E-01 and 9.24E-01, the “normalized TR-FRET ligand displacement signal, dose-response replicates (SI Fig 6)” value (HsProRS; Log[inhibitor] (M) -9.000) was 9.78E-01 and 9.57E-01 and 9.87E-01 and the “TR-FRET dose-response, normalized signal (SI Fig 11)” value (HsProRS; Log[inhibitor] (M) -9.000) was 9.07E-01 and 8.93E-01 and 8.97E-01. The “normalized TR-FRET ligand displacement signal, dose-response replicates (SI Fig 6)” value (HsProRS; Log[inhibitor] (M) -9.301) was 9.45E-01 and 8.63E-01 and 9.67E-01, the “TR-FRET dose-response, normalized signal (SI Fig 11)” value (HsProRS; Log[inhibitor] (M) -9.301) was 9.11E-01 and 8.69E-01 and 9.61E-01 and the “HsProRS % signal at 10 μM” value (HsProRS; no added proline/ATP (-), 10 μM) was 59.4%. For the same compound, the IC50 (HsProRS; read-out: HsProRS IC50 + 100 μM proline, + 100 μM proline) was > 10 µM.

Compound `O=C(NC1Cc2ccccc2C1)c1nccnc1NC(=O)C1(O)CCCCC1` [compound 15] has an EC50 (P. falciparum Dd2-2D4) of 1500 nM, a Kd (HsProRS; HsProRS (KD [nM]) mean, no added proline/ATP (-)) of 2700 nM and a Kd (HsProRS; HsProRS - best Kd, SI Fig 16a, values on -log scale) of 21.8 nM.
